{"source": "patent US3939277A", "about": "“Insecticidal biodegradable analogues of DDT” (priority 1973, dated 1976)", "key": {"[1]": {"tested_on": "insects", "settings": "background statement, cited from earlier work; for insecticidal activity (in words): compared with DDT towards other species of insects; for insecticidal activity (in words), general: toward certain species of insects"}, "[2]": {"tested_on": "larvae of the mosquito Anopheles albimanus", "assay": "Toxicity to mosquito larvae as described by WHO (VBC/1968), Anopheles albimanus", "type": "in vivo"}, "[3]": {"tested_on": "female house flies, Musca domestica, susceptible (SNAIDM)", "assay": "Topical application to female house flies, susceptible (SNAIDM) strain", "settings": "read-out: topical LD50 female housefly, Susceptible", "procedure": "(§1) Compositions of the present invention were tested for insecticidal activities determined by standard methods, and compared with the activities of DDT and other symmetrical analogues of DDT, e.g. methoxychlor. In these tests, female house flies, Musca domestica, under CO2 anesthesia, were treated with topical application of 1 ul drops of w/v solutions of the insecticides in acetone. Three replicates of 20 flies 2-4 days old were treated on the pronotum at each dosage, and at least 5 dosages were used to establish each dosage versus mortality curve. Mortalities were determined by holding the flies at 72° F. (22° C.) with 40% sucrose solution as food. Topical applications were made to both susceptible (SNAIDM) and DDT-resistant (Rsp) strains in exactly the same manner. The results of these evaluations are reported in Table II as LD50 values in ug. of toxicant per gram of insect using the average weight of the house fly as 20 mg. Evaluations of the toxicity of the same compositions to the larvae of the mosquitoes Culex pipiens quinquefasciatus and Anopheles albimanus were made as described by WHO (VBC/1968) and the results are also shown in Table II."}, "[4]": {"tested_on": "female house flies, Musca domestica, DDT-resistant (Rsp)", "assay": "Topical application to female house flies, DDT-resistant (Rsp) strain", "settings": "read-out: topical LD50 female housefly, DDT-resistant", "procedure": "as §1"}, "[5]": {"tested_on": "larvae of the mosquito Culex pipiens quinquefasciatus", "assay": "Toxicity to mosquito larvae as described by WHO (VBC/1968), Culex pipiens quinquefasciatus", "type": "in vivo"}, "[6]": {"tested_on": "multifunction oxidase (MFO) enzymes", "settings": "background statement; cited from earlier work"}, "[7]": {"settings": "background statement; cited from earlier work"}}}
{"smiles": "Cc1ccc(C(c2ccc(C)cc2)C(Cl)(Cl)Cl)cc1", "note": "[methylchor, 1,1,1-trichloro-2,2-bis (p methylphenyl)ethane]", "values": [{"measurement": "insecticidal activity (in words)", "setting": "[1]", "value": "considerably less insecticidal activity than DDT towards other species of insects"}, {"measurement": "insecticidal activity (in words), general", "setting": "[1]", "value": "satisfactory insecticidal activity toward certain species of insects"}]}
{"smiles": "COc1ccc(C(c2ccc(C)cc2)C(Cl)(Cl)Cl)cc1", "note": "(stereo not drawn) [Example III]", "values": [{"measurement": "LC50", "setting": "[2]", "value": 0.12, "unit": "mg/L"}, {"measurement": "LD50", "setting": "[3]", "value": 23.5, "unit": "mg/kg"}, {"measurement": "LD50", "setting": "[4]", "value": 62.5, "unit": "mg/kg"}, {"measurement": "LC50", "setting": "[5]", "value": 0.085, "unit": "mg/L"}]}
{"smiles": "CCOc1ccc(C(c2ccc(C)cc2)C(Cl)(Cl)Cl)cc1", "note": "(stereo not drawn) [Example IV]", "values": [{"measurement": "LC50", "setting": "[2]", "value": 0.11, "unit": "mg/L"}, {"measurement": "LD50", "setting": "[3]", "value": 9, "unit": "mg/kg"}, {"measurement": "LD50", "setting": "[4]", "value": 27, "unit": "mg/kg"}, {"measurement": "LC50", "setting": "[5]", "value": 0.13, "unit": "mg/L"}]}
{"smiles": "Clc1ccc(C(c2ccc(Cl)cc2)C(Cl)Cl)cc1", "note": "[DDD, 1,1-dichloro 2,2-bis-(p-chlorophenyl) ethane]", "values": [{"measurement": "susceptibility to attack / detoxication by MFO enzymes", "setting": "[6]", "value": "highly resistant to detoxication by MFO enzymes"}]}
{"smiles": "CSc1ccc(C(c2ccc(SC)cc2)C(Cl)(Cl)Cl)cc1", "note": "[methiochlor, 1,1,1-trichloro-2,2-bis-(pmethiophenyl)ethane]", "values": [{"measurement": "insecticidal activity (in words)", "setting": "[1]", "value": "considerably less insecticidal activity than DDT towards other species of insects"}, {"measurement": "insecticidal activity (in words), general", "setting": "[1]", "value": "satisfactory insecticidal activity toward certain species of insects"}, {"measurement": "susceptibility to attack / detoxication by MFO enzymes", "setting": "[6]", "value": "readily attacked by MFO enzymes"}]}
{"smiles": "CCCOc1ccc(C(c2ccc(C)cc2)C(Cl)(Cl)Cl)cc1", "note": "(stereo not drawn) [Example V]", "values": [{"measurement": "LC50", "setting": "[2]", "value": 0.2, "unit": "mg/L"}, {"measurement": "LD50", "setting": "[3]", "value": 20, "unit": "mg/kg"}, {"measurement": "LD50", "setting": "[4]", "value": 55, "unit": "mg/kg"}, {"measurement": "LC50", "setting": "[5]", "value": 0.04, "unit": "mg/L"}]}
{"smiles": "COc1ccc(C(c2ccc(OC)cc2)C(Cl)(Cl)Cl)cc1", "note": "[Methoxychlor, 1,1,1-trichloro-2,2-bis-(pmethoxyphenyl)ethane, reference compound]", "values": [{"measurement": "LC50", "setting": "[2]", "value": 0.18, "unit": "mg/L"}, {"measurement": "insecticidal activity (in words)", "setting": "[1]", "value": "considerably less insecticidal activity than DDT towards other species of insects"}, {"measurement": "insecticidal activity (in words), general", "setting": "[1]", "value": "satisfactory insecticidal activity toward certain species of insects"}, {"measurement": "LD50", "setting": "[3]", "value": 45, "unit": "mg/kg"}, {"measurement": "susceptibility to attack / detoxication by MFO enzymes", "setting": "[6]", "value": "readily attacked by MFO enzymes"}, {"measurement": "LD50", "setting": "[4]", "value": 48, "unit": "mg/kg"}, {"measurement": "LC50", "setting": "[5]", "value": 0.067, "unit": "mg/L"}]}
{"smiles": "CCOc1ccc(C(c2ccc(SC)cc2)C(Cl)(Cl)Cl)cc1", "note": "(stereo not drawn) [Example II]", "values": [{"measurement": "LC50", "setting": "[2]", "value": 0.054, "unit": "mg/L"}, {"measurement": "LD50", "setting": "[3]", "value": 32, "unit": "mg/kg"}, {"measurement": "LD50", "setting": "[4]", "value": 85, "unit": "mg/kg"}, {"measurement": "LC50", "setting": "[5]", "value": 0.07, "unit": "mg/L"}]}
{"smiles": "ClC(Cl)=C(c1ccc(Cl)cc1)c1ccc(Cl)cc1", "note": "[DDE, 1,1-dichloro-2,2-bis-(p-chloro-phyenyl)ethylene]", "values": [{"measurement": "susceptibility to attack / detoxication by MFO enzymes", "setting": "[6]", "value": "highly resistant to detoxication by MFO enzymes"}]}
{"smiles": "Clc1ccc(C(c2ccc(Cl)cc2)C(Cl)(Cl)Cl)cc1", "note": "[DDT, 1,1,1-trichloro-2,2-bis(p-chlorophenyl)ethane, reference compound]", "values": [{"measurement": "LC50", "setting": "[2]", "value": 0.016, "unit": "mg/L"}, {"measurement": "LD50", "setting": "[3]", "value": 14, "unit": "mg/kg"}, {"measurement": "lipid solubility", "setting": "[7]", "value": "high lipid solubility"}, {"measurement": "water solubility", "setting": "[7]", "value": "very low water solubility"}, {"measurement": "susceptibility to attack / detoxication by MFO enzymes", "setting": "[6]", "value": "highly resistant to detoxication by MFO enzymes"}, {"measurement": "LD50", "setting": "[4]", "value": 170, "unit": "mg/kg"}, {"measurement": "LC50", "setting": "[5]", "value": 0.07, "unit": "mg/L"}]}
{"smiles": "CCc1ccc(C(c2ccc(C)cc2)C(Cl)(Cl)Cl)cc1", "note": "(stereo not drawn) [Example VI]", "values": [{"measurement": "LC50", "setting": "[2]", "value": 0.23, "unit": "mg/L"}, {"measurement": "LD50", "setting": "[3]", "value": 11, "unit": "mg/kg"}, {"measurement": "LD50", "setting": "[4]", "value": 28, "unit": "mg/kg"}, {"measurement": "LC50", "setting": "[5]", "value": 0.08, "unit": "mg/L"}]}
{"smiles": "COc1ccc(C(c2ccc(SC)cc2)C(Cl)(Cl)Cl)cc1", "note": "(stereo not drawn) [Example I, 2-(p-methoxyphenyl)-2-(p-methylthiophenyl)-1,1,1-trichloroethane]", "values": [{"measurement": "LC50", "setting": "[2]", "value": 0.044, "unit": "mg/L"}, {"measurement": "LD50", "setting": "[3]", "value": 23.5, "unit": "mg/kg"}, {"measurement": "LD50", "setting": "[4]", "value": 80, "unit": "mg/kg"}, {"measurement": "LC50", "setting": "[5]", "value": 0.11, "unit": "mg/L"}]}
